Test results: PMC9485725, “The AIRE G228W mutation disturbs the interaction of AIRE with its partner molecule SIRT1” (Frontiers in Immunology, 2022)

Target: T1, human SIRT1 (Homo sapiens, UniProt Q96EB6)
T1 construct: purchased Sigma–Aldrich S8846
T1 sequence (Q96EB6 1-747): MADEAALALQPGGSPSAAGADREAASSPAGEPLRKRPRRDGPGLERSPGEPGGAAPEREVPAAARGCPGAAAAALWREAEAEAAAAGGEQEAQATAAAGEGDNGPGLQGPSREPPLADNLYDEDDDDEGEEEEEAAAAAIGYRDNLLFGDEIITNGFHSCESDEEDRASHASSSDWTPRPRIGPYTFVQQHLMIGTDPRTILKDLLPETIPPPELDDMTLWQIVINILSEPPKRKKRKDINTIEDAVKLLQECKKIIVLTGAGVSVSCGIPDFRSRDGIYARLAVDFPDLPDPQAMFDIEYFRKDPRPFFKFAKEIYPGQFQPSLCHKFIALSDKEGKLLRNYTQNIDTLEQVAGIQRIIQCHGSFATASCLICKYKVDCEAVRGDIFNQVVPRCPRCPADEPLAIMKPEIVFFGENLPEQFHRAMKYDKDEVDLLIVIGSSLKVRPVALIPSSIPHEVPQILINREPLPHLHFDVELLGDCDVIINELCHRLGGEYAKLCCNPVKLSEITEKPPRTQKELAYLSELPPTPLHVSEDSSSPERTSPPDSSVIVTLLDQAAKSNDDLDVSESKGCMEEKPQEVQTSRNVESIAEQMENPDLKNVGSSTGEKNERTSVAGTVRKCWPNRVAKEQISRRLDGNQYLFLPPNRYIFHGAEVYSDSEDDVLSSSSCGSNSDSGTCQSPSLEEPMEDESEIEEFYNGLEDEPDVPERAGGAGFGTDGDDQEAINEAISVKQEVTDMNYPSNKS
Assay: Surface plasmon resonance (Biacore T200) of SAND peptides on immobilized SIRT1
Format: binding
Conditions: for binding kinetics (association and dissociation) with SIRT1: SPR sensorgrams, 20, 100, 200 µM, dissociation time 1200 s; for binding kinetics (association and dissociation) with SIRT1 / association with SIRT1: contact time 300 s; for binding kinetics (association and dissociation) with SIRT1 / affinity (as seen through binding and dissociation) with SIRT1: in words; for association with SIRT1 / association with SIRT1 with increasing peptide concentration / affinity (as seen through binding and dissociation) with SIRT1: SPR; for association with SIRT1: Biacore T200, CM5 chip, human SIRT1 immobilized in 10 mM sodium acetate pH 4.0 plus 20 µM NAD+, peptides (K222 acetylated) 20, 100, 200 μM, 20 μl/min, described in words; for association with SIRT1 with increasing peptide concentration: six peptide concentrations 10, 15, 20, 50, 100, 200 µM plus control 0 µM, Supplementary Figure 1; for affinity (as seen through binding and dissociation) with SIRT1: wild-type versus mutant peptide
Description: The surface plasmon resonance (SPR) experiments were performed on Biacore Model T200 equipment (GE Healthcare Biosciences, Uppsala, Sweden). For the immobilization of human SIRT1 (catalog number S8846, Sigma–Aldrich, Saint Louis, MO), a CM5 sensor chip S series (GE Healthcare Biosciences) has carboxylic groups available for covalent coupling was used. All solutions used were purchased from the equipment supplier (GE Healthcare Biosciences). The procedures described here were performed automatically with the Biacore instrument using pre-established programs for binding amines in peptides or proteins.
Briefly, the carboxylic groups on the CM5 sensor chip surface were activated with EDC + NHS, forming the NHS ester reactive intermediate, which, after washing with HBS-N, readily reacted with amines dissolved in the immobilization solution. The human SIRT1 ligand was dissolved in 10 mM sodium acetate pH 4.0 plus 20 µM NAD+ (catalog number N1636, beta-nicotinamide adenine dinucleotide hydrate, Sigma–Aldrich), which was immobilized onto the Biacore sensor chip according to the manufacturer´s instructions.
To detect interactions between SIRT1 and AIRE WT or AIRE G228W mutant SAND domain peptides, different concentrations of peptides were injected onto the CM5 chip with immobilized SIRT1 protein. […] The surface was regenerated between samples by injecting 2.0 M glycine pH 2.0 (30 s, 30 μl/min) followed by injection of 2.0 M NaCl (30 s, 30 μl/min). The stabilization period between injections after regeneration was 200 s.
The respective sequences of the twenty-amino acid peptide residues (Synbio Technologies, Monmouth Junction, NJ, USA) comprising positions 211 to 230 of the SAND domain of the human AIRE protein are as follows: from the C to N-terminus, AIRE wild-type ([…]) and AIRE G228W mutant ([…]). The underlined K residue represents the position where the acetyl radical was added. The experiment determined whether the K residue underlined was acetylated or not. The AIRE wild-type or AIRE G228W mutation data are available through GenBank NCBI (https://www.ncbi.nlm.nih.gov/) accession numbers (NM_000383.4): c.682G>T G [GGG] > W [TGG], coding sequence variant autoimmune regulator (NP_000374.1): p. Gly228TrpG (Gly) > W missense variant, DbSNP (https://www.ncbi.nlm.nih.gov/snp/rs121434257) and ClinVar (https://www.ncbi.nlm.nih.gov/clinvar/variation/3313/).
Kinetic data were analyzed with Anabel Analysis of Binding Events software ([32]), available at (www.skscience.org/anabel). Data obtained with the different concentrations of AIRE WT or mutant peptides were combined in the same graph.

Sequence	binding kinetics (association and dissociation) with SIRT1 (listed as WT AIRE SAND peptide (Gly228))	binding kinetics (association and dissociation) with SIRT1 (listed as wild-type SAND domain peptide)	association with SIRT1	association with SIRT1 with increasing peptide concentration	affinity (as seen through binding and dissociation) with SIRT1	association with SIRT1 (listed as G228W mutant peptide)	association with SIRT1 (listed as mutant AIRE SAND peptide (Trp228))
IQQVFESGGSKKCIQVGGEF [wild-type SAND G228 peptide, twenty-amino acid peptide comprising positions 211 to 230 of the SAND domain of the human AIRE protein, wild-type]	associated and dissociated with SIRT1 throughout the analysis	bound faster and dissociated longer	more significant association capacity	progressive increase in the association	stronger affinity	–	–
IQQVFESGGSKKCIQVGWEF [mutant W228 SAND peptide, twenty-amino acid peptide comprising positions 211 to 230 of the SAND domain of the human AIRE protein, G228W mutant]	–	–	less able to associate with SIRT1	not observed	weaker association	weaker association	lesser association affinity
